Data as given in patent US12691063B1, “Methods of using radiprodil in the treatment of disorders” (GRIN Therapeutics, Inc., priority 2023, dated 2026).
“And” between values parts separate entries of the source, which are not always exact repeats. Identical values can stand only once.

Key:
[1] = test system: patients with GRIN-related neurodevelopmental disorder and GoF variants, countable motor seizures (CMS); assay: Open-label phase 1B study, seizure cohort; type: in vivo, human
Text: Investigational Product (IP): Radiprodil. This example describes an open-label, multicenter phase 1B study being conducted to evaluate the safety, tolerability, and pharmacokinetics (PK) of multiple individually titrated doses of radiprodil and to assess the treatment effect on seizures in participants with drug-resistant seizures caused by gain-of-function (GoF) variants in the GRIN1, GRIN2A, GRIN2B, or GRIN2D genes (GRIN2B GoF variants in the US only).
(§1) This is a global, open-label, multicenter, phase 1B study to evaluate the safety, tolerability, and PK of multiple individually titrated doses of radiprodil and to assess the treatment effect on seizures and behavioral symptoms in 2 cohorts of pediatric participants: 1 cohort of participants with drug resistant seizures (with or without behavioral symptoms) (Cohort 1) and 1 cohort of participants with behavioral symptoms (but no qualifying seizures) (Cohort 2) caused by GoF variants in the GRIN1, 2A, 2B, or 2D genes (GRIN2B GoF variants only in the US). These GoF variants are gene mutations that cause an increased sensitivity of NMDA receptors to glutamate or through decreased inhibition by magnesium, altered affinity to glycine, or other relevant changes considered to increase NMDA transmission. Drug-resistant seizures are defined as a failure to respond to at least 2 antiseizure medication (ASM) therapies taken at adequate doses for an appropriate duration with assured medication adherence as determined by the treating physician. Participants with seizures to be enrolled in the first cohort should have at least 1 observable motor seizure per week and ≥4 observable motor seizures in the prospective 4-week Observation Period.
A seizure cohort of patients from 6 months to 12 years of age with known GoF variants confirmed via method described in Myers, et al., Hum Mol Genetics. 2023, 32:2857-2871, was enrolled. The patients had drug-resistant seizures with or without behavioral symptoms. Patients also had ≥1 weekly countable motor seizure (CMS) with ≥4 generalized or focal seizures during the observation period. Motor seizures included drop seizures; generalized onset seizures included tonic-clonic, tonic, bilateral clonic, atonic, myoclonic-atonic, and myoclonic-tonic-clonic seizures; and focal seizures included seizures with bilateral hyperkinetic motor features and clonic seizures.
Primary endpoints included safety, tolerability, and radiprodil plasma concentrations. Key secondary endpoints (aka, change from baseline in observable daily CMS frequency using an electronic diary (eDiary)), included ≥50%, ≥90%, and 100% reductions from baseline in seizure frequency; proportion of seizure-free days; and Clinical Global Impressions of Change (CGI-C) and Caregiver Global Impressions of Change (CaGI-C), from baseline to the end of the maintenance period.

[2] = 4-week juvenile rat toxicology study; type: in vivo; settings: 0.05 mg/kg bid starting dose
Experimental: The starting dose for each participant enrolled in the study will be set at 0.05 mg/kg bid. […] In patients with neuropathic pain, a total daily dose of 135 mg (45 mg tid) up to 14 weeks has been previously administered. […] Dose Escalation
For the sites not located in the US, based on the dedicated PBPK model, the increment will be a dose expected to give no more than a 2.5-fold higher plasma concentration.

PTZ-induced convulsions = assay: Juvenile PTZ rat model of generalized clonic-tonic seizures; type: in vivo; settings: 10 mg/kg; postnatal day 12 and postnatal day 18 rats
Experimental: (§2) Radiprodil anticonvulsant efficacy was specifically tested in rats at different time points during postnatal development, using pentylenetetrazole (PTZ) as a convulsant, to induce generalized clonic-tonic seizures. The activity of radiprodil in this juvenile PTZ rat model was tested up to 30 mg/kg, showing efficacy at a dose of 1 mg/kg. The calculated free plasma fraction of an orally administered 1 mg/kg dose is expected to give around 60% occupancy of the NR2B receptor, based on an ex-vivo occupancy study in rodents and assuming a 1:1 brain to plasma ratio, see below for further details.

NR2B receptor = target: T1, NR2B receptor (Rattus norvegicus, UniProt P35439+Q00960); assay: NR2B occupancy calculated from ex-vivo occupancy study in rodents; settings: po; orally administered 1 mg/kg dose; calculated free plasma fraction; 1:1 brain to plasma ratio assumed
T1 construct: from tissue; host or cells: rodent brain (ex vivo)
Experimental: as §2

[3] = test system: patients with GRIN-related neurodevelopmental disorder and GoF variants, behavioral symptoms; assay: Open-label phase 1B study, behavioral cohort; type: in vivo, human
Text: as §1
A behavioral cohort of patients from 6 months to 12 years of age with known GoF variants confirmed via method described in Myers, et al., Hum Mol Genetics. 2023, 32:2857-2871, was enrolled. […] Motor seizures included drop seizures; generalized onset seizures included tonic-clonic, tonic, bilateral clonic, atonic, myoclonic-atonic, and myoclonic-tonic-clonic seizures; and focal seizures included seizures with bilateral hyperkinetic motor features and clonic seizures.

[4] = all unrelated to radiprodil treatment

T1 sequence (Q00960 27-1482, other chains not shown): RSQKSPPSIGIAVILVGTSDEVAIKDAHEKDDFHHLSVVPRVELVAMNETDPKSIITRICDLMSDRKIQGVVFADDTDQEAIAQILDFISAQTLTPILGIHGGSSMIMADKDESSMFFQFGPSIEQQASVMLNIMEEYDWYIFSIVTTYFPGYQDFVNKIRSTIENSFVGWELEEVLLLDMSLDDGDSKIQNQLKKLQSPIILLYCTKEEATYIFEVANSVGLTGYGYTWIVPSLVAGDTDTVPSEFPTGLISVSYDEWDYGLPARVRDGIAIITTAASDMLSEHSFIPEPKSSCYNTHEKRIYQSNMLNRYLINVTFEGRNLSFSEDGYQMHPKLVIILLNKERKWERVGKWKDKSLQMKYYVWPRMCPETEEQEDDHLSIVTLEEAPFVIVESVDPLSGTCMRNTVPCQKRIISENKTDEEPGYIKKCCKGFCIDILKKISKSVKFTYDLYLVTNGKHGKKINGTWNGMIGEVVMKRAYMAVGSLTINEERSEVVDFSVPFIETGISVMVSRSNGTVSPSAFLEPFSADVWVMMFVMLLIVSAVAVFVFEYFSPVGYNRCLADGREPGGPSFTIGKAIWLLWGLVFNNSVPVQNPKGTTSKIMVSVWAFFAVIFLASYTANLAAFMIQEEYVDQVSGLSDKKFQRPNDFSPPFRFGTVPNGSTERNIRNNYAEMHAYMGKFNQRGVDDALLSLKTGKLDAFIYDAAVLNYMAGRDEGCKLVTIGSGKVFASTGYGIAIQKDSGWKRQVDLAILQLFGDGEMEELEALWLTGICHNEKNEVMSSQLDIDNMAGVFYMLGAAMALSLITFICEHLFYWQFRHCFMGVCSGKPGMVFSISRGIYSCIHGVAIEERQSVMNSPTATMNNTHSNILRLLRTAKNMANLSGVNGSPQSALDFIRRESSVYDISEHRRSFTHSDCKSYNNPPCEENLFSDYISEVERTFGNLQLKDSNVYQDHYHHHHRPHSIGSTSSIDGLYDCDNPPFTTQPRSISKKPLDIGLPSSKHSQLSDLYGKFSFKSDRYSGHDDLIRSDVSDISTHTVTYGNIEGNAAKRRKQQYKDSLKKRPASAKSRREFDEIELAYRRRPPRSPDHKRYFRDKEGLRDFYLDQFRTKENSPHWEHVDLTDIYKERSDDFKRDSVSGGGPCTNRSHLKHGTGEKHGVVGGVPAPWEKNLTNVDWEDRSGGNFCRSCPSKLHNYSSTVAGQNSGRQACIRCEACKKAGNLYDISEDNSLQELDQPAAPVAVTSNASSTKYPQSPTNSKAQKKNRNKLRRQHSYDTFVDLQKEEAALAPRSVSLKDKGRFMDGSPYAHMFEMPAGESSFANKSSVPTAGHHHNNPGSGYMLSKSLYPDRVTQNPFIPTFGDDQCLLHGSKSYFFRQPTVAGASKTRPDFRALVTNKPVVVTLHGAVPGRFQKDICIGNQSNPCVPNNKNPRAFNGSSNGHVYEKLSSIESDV

## O=C(Nc1ccc2[nH]c(=O)oc2c1)C(=O)N1CCC(Cc2ccc(F)cc2)CC1 [radiprodil, Radiprodil]
[1]; 8-week maintenance period
  patients seizure-free during 80% of days: 6 of 7
[1]; Example 4
  tolerability: generally well-tolerated
[1]; Seizure Cohort (n = 8)
  Any TEAE: 8 (100) n (%)
  TEAE Abnormal behavior: 1 (12.5) n (%)
  TEAE Agitation: 1 (12.5) n (%)
  TEAE Cough: 2 (25.0) n (%)
  TEAE Diarrhoea: 2 (25.0) n (%)
  TEAE Dystonia: 2 (25.0) n (%)
  TEAE Fatigue: 1 (12.5) n (%)
  TEAE Gastroenteritis: 2 (25.0) n (%)
  TEAE Pyrexia: 4 (50.0) n (%)
  TEAE Respiratory tract infection: 2 (25.0) n (%)
[1]; after radiprodil treatment
  seizure cohort patients with reductions from baseline in CMS frequency: 6 of the 7 and 6 of 7
[1]; [4]
  patients who experienced SAEs: Three
[1]; caregivers, seizure cohort
  Caregiver Global Impressions of Change (CaGI-C): clinical improvement in most patients
[1]; clinicians, seizure cohort
  Clinical Global Impressions of Change (CGI-C): clinical improvement in most patients
[1]; seizure cohort
  reduction in CMS frequency in most patients: ≥ 50%
[2]
  exposure level (total Cmax and AUC) lower than NOAEL exposure in juvenile rat toxicology study: more than 20 fold
PTZ-induced convulsions
  tonic phases of PTZ-induced convulsions: completely blocked
NR2B receptor
  receptor occupancy at 1 mg/kg: ~60%
[3]; Behavioral Cohort (n = 7)
  Any TEAE: 6 (85.7) n (%)
  TEAE Abnormal behavior: 2 (28.6) n (%)
  TEAE Agitation: 2 (28.6) n (%)
  TEAE Cough: 1 (14.3) n (%)
  TEAE Diarrhea: 2 (28.6) n (%)
  TEAE Dystonia: 1 (14.3) n (%)
  TEAE Fatigue: 2 (28.6) n (%)
  TEAE Gastroenteritis: 1 (14.3) n (%)
  TEAE Pyrexia: 1 (14.3) n (%)
  TEAE Respiratory tract infection: 2 (28.6) n (%)
[3]; Example 9
  tolerability: generally well-tolerated
[3]; [4]
  patients who experienced SAEs: Three
[3]; caregivers, behavioral cohort
  Caregiver Global Impressions of Change (CaGI-C): clinical improvement in most patients
[3]; clinicians, behavioral cohort
  Clinical Global Impressions of Change (CGI-C): clinical improvement in most patients
